Laboratory results from US20260317344A1, “EGFR INHIBITORS FOR TREATING DISEASE” (BLOSSOMHILL THERAPEUTICS, INC., priority 2023, published 2026).

Tests used:
Assay type in all cases: cell-based
PC-9 cells = experiment: 5-Day CellTiter Glo (CTG) cell proliferation assay, PC-9; conditions: Homo sapiens; PC-9 cells (d746-750 EGFR), 5-day CTG proliferation, 120 hours; read-out: PC-9 IC50
Method: (§1) 5-Day CellTiter Glo (CTG) Cell Proliferation Assays (PC9, H1975, H827)
(§2) Cell proliferation assays were carried out in NSCLC cells with EGFR activation mutations. Both PC-9 cells and HCC827 cells (purchased from DSMZ) carry a Glu746-Ala750 deletion (d746-750) mutation in exon 19 of the EGFR gene and NCI-H1975 cells carry both L858R activation mutation and T790M gatekeeper mutation in the EGFR gene. One thousand PC-9, NCI-H1975 or HCC827 cells/100 μL per well were seeded in 96-well black plate with transparent bottom and then treated with indicated compounds in a 9-dose dilution series dispensed using TECAN d300e liquid dispenser. Cells were incubated with compounds for 120 hours at 37° C. and 5% CO2. Cell proliferation was measured using CellTiter-Glo 2.0 luciferase-based ATP detection assay (Promega, Madison, WI) at […] per well following the manufacturer's protocol. Plates were then read on a TECAN Sparks multimode microplate reader. Data was analyzed using GraphPad Prism 9 (GraphPad Software, San Diego, CA) to obtain IC50 values.

NCI-H1975 cells = experiment: 5-Day CellTiter Glo (CTG) cell proliferation assay, NCI-H1975; conditions: Homo sapiens; NCI-H1975 cells (L858R/T790M EGFR), 5-day CTG proliferation, 120 hours; read-out: H1975 IC50
Method: as §1, §2

HCC827 cells = experiment: 5-Day CellTiter Glo (CTG) cell proliferation assay, HCC827; conditions: Homo sapiens; HCC827 cells (d746-750 EGFR), 5-day CTG proliferation, 120 hours; read-out: HCC827 IC50
Method: as §1, §2

IC50 (PC-9 cells)	IC50 (NCI-H1975 cells)	IC50 (HCC827 cells)	Structure (SMILES)
17 nM	56.8 nM	3.32 nM	Cc1nn(C)c2c1-c1cc3c(n[nH]c3c(C)n1)/C=C/c1cnn([C@@H](C)CO)c1CN(C1CC1)[C@H](C)CO2 [Ex. 128, (2S)-2-[(11R,17E)-12-cyclopropyl-6,8,11,20-tetramethyl-2,8,10,11,12,13-hexahydro-14H-5,3-(azenometheno)tripyrazolo[3,4-f:3′,4′-j:4″,3″-n][1,4]oxazacyclopentadecin-14-yl]propan-1-ol]
113 nM		90.7 nM	CCOc1nn(C)c2c1/C=C/c1n[nH]c3c(C)nc(cc13)-c1c(C)nn(C)c1O[C@@H](C)CN(C(=O)C(C)C)C2 [Ex. 137, 1-[(10S,17E)-16-ethoxy-6,8,10,14,20-pentamethyl-2,8,10,11,13,14-hexahydro-12H-5,3-(azenometheno)tripyrazolo[3,4-f:3′,4′-j:4″,3″-n][1,4]oxazacyclopentadecin-12-yl]-2-methylpropan-1-one]
4.35 nM	429 nM	0.82 nM	COCc1nn(C)c2c1-c1cc3c(n[nH]c3c(C)n1)/C=C/c1cnn([C@@H](C)CO)c1CN(C1CC1)C[C@H](C)O2 [Ex. 139, (2S)-2-[(10S,17E)-12-cyclopropyl-6-(methoxymethyl)-8,10,20-trimethyl-2,8,10,11,12,13-hexahydro-14H-5,3-(azenometheno)tripyrazolo[3,4-f:3′,4′-j:4″,3″-n][1,4]oxazacyclopentadecin-14-yl]propan-1-ol]
116 nM		73.8 nM	CCOc1nn(C)c2c1/C=C/c1n[nH]c3c(C)nc(cc13)-c1c(C)nn(C)c1O[C@@H](C)CN(C(=O)CC)C2 [Ex. 135, 1-[(10S,17E)-16-ethoxy-6,8,10,14,20-pentamethyl-2,8,10,11,13,14-hexahydro-12H-5,3-(azenometheno)tripyrazolo[3,4-f:3′,4′-j:4″,3″-n][1,4]oxazacyclopentadecin-12-yl]propan-1-one]
25.5 nM	27.2 nM	2.97 nM	CCOc1nn([C@@H](C)CO)c2c1/C=C/c1n[nH]c3c(OC)nc(cc13)-c1c(C)nn(C)c1O[C@@H](C)CN(C)C2 [Ex. 96, (2S)-2-[(10S,17E)-16-ethoxy-20-methoxy-6,8,10,12-tetramethyl-2,8,10,11,12,13-hexahydro-14H-5,3-(azenometheno)tripyrazolo[3,4-f:3′,4′-j:4″,3″-n][1,4]oxazacyclopentadecin-14-yl]propan-1-ol]
1.12 nM	0.77 nM	0.41 nM	CCOc1nn([C@@H](C)CO)c2c1/C=C/c1n[nH]c3c(C)nc(cc13)-c1c(C)nn(C)c1O[C@H](C)[C@@H](C)N(C)C2 [Ex. 132a, (2S)-2-[(11R,17E)-16-ethoxy-6,8,10,11,12,20-hexamethyl-2,8,10,11,12,13-hexahydro-14H-5,3-(azenometheno)tripyrazolo[3,4-f:3′,4′-j:4″,3″-n][1,4]oxazacyclopentadecin-14-yl]propan-1-ol]
0.54 nM	0.7 nM	0.29 nM	CCOc1nn([C@@H](C)CO)c2c1/C=C/c1n[nH]c3c(C)nc(cc13)-c1c(C)nn(C)c1O[C@@H](C)[C@@H](C)N(C)C2 [Ex. 132b, (2S)-2-[(11R,17E)-16-ethoxy-6,8,10,11,12,20-hexamethyl-2,8,10,11,12,13-hexahydro-14H-5,3-(azenometheno)tripyrazolo[3,4-f:3′,4′-j:4″,3″-n][1,4]oxazacyclopentadecin-14-yl]propan-1-ol]
0.37 nM	0.58 nM	0.24 nM	CCOc1nn([C@@H](C)CO)c2c1/C=C/c1n[nH]c3c(C)nc(cc13)-c1c(C)nn(C)c1O[C@@H](C)CN(CC)C2 [Ex. 145, (2S)-2-[(10S,17E)-16-ethoxy-12-ethyl-6,8,10,20-tetramethyl-2,8,10,11,12,13-hexahydro-14H-5,3-(azenometheno)tripyrazolo[3,4-f:3′,4′-j:4″,3″-n][1,4]oxazacyclopentadecin-14-yl]propan-1-ol]
29.9 nM		6.1 nM	COCc1nn(C)c2c1-c1cc3c(n[nH]c3c(C)n1)/C=C/c1cnn([C@@H](C)CO)c1CN(C1CC1)[C@H](C)CO2 [Ex. 140, (2S)-2-[(11R,17E)-12-cyclopropyl-6-(methoxymethyl)-8,11,20-trimethyl-2,8,10,11,12,13-hexahydro-14H-5,3-(azenometheno)tripyrazolo[3,4-f:3′,4′-j:4″,3″-n][1,4]oxazacyclopentadecin-14-yl]propan-1-ol]
34.2 nM	40.5 nM	8.87 nM	Cc1nn(C)c2c1-c1cc3c(n[nH]c3c(C)n1)/C=C/c1cnn(CCO)c1CN(C1CC1)C[C@H](C)O2 [Ex. 133, 2-[(10S,17E)-12-cyclopropyl-6,8,10,20-tetramethyl-2,8,10,11,12,13-hexahydro-14H-5,3-(azenometheno)tripyrazolo[3,4-f:3′,4′-j:4″,3″-n][1,4]oxazacyclopentadecin-14-yl]ethan-1-ol]
67 nM	266 nM	34.4 nM	CCOc1nn(C)c2c1/C=C/c1n[nH]c3c(C)nc(cc13)-c1c(C)nn(C)c1O[C@@H](C)CN(C(=O)C1CC1)C2 [Ex. 136, cyclopropyl[(10S,17E)-16-ethoxy-6,8,10,14,20-pentamethyl-2,8,10,11,13,14-hexahydro-12H-5,3-(azenometheno)tripyrazolo[3,4-f:3′,4′-j:4″,3″-n][1,4]oxazacyclopentadecin-12-yl]methanone]
2.32 nM	176 nM	0.75 nM	CCOc1nn([C@@H](C)CO)c2c1/C=C/c1n[nH]c3cnc(cc13)-c1c(COC)nn(C)c1O[C@@H](C)CN(C)C2 [Ex. 130, (2S)-2-[(10S,17E)-16-ethoxy-6-(methoxymethyl)-8,10,12-trimethyl-2,8,10,11,12,13-hexahydro-14H-5,3-(azenometheno)tripyrazolo[3,4-f:3′,4′-j:4″,3″-n][1,4]oxazacyclopentadecin-14-yl]propan-1-ol]
353 nM	671 nM	60.5 nM	CCOc1nn(C)c2c1/C=C/c1n[nH]c3c(C)nc(cc13)-c1c(C)nn(C)c1O[C@@H](C)CN(C(C)=O)C2 [Ex. 131, 1-[(10S,17E)-16-ethoxy-6,8,10,14,20-pentamethyl-2,8,10,11,13,14-hexahydro-12H-5,3-(azenometheno)tripyrazolo[3,4-f:3′,4′-j:4″,3″-n][1,4]oxazacyclopentadecin-12-yl]ethan-1-one]
1.26 nM	1.92 nM	0.37 nM	Cc1nn(C)c2c1-c1cc3c(n[nH]c3c(C)n1)/C=C/c1cnn([C@@H](C)CO)c1CN(C1CC1)C[C@H](C)O2 [Ex. 127, (2S)-2-[(10S,17E)-12-cyclopropyl-6,8,10,20-tetramethyl-2,8,10,11,12,13-hexahydro-14H-5,3-(azenometheno)tripyrazolo[3,4-f:3′,4′-j:4″,3″-n][1,4]oxazacyclopentadecin-14-yl]propan-1-ol]
351 nM	338 nM	38.1 nM	CCOc1nn([C@@H](C)CO)c2c1/C=C/c1n[nH]c3c(O)nc(cc13)-c1c(C)nn(C)c1O[C@@H](C)CN(C)C2 [Ex. 99, (10S,17E)-16-ethoxy-14-[(2S)-1-hydroxypropan-2-yl]-6,8,10,12-tetramethyl-2,10,11,12,13,14-hexahydro-8H-5,3-(azenometheno)tripyrazolo[3,4-f:3′,4′-j:4″,3″-n][1,4]oxazacyclopentadecin-20-ol]
21.6 nM	519 nM	9.09 nM	COCc1nn(C)c2c1-c1cc3c(n[nH]c3c(C)n1)/C=C/c1cnn(C)c1CN(C(=O)CCN(C)C)C[C@H](C)O2 [Ex. 143, 3-(dimethylamino)-1-[(10S,17E)-6-(methoxymethyl)-8,10,14,20-tetramethyl-2,8,10,11,13,14-hexahydro-12H-5,3-(azenometheno)tripyrazolo[3,4-f:3′,4′-j:4″,3″-n][1,4]oxazacyclopentadecin-12-yl]propan-1-one]
